Literature values as cited in patent US20190015446A1, “MEDICINAL COMPOSITION FOR IMPROVING PROGNOSIS AFTER RESTART OF PATIENT'S OWN HEARTBEAT” (KEIO UNIVERSITY, priority 2015, published 2019).

Key:
[1] = system: healthy persons; details: hydrogen gas 49%
[2] = system: rats after cardiopulmonary arrest resuscitation; details: inhalation from before to immediately after return of spontaneous circulation

Q: What does the source list for `[HH]` [hydrogen gas]?
A: Adverse reaction on inhalation [1]: no adverse reaction; Brain and heart functions and vital prognosis after cardiopulmonary arrest resuscitation [2]: can improve brain and heart functions and vital prognosis
